Results reported in US20050100888A1, “Methods based on hormone dependency of primary cancer cells” (Imperial College Innovations Limited, priority 2002, published 2005).

Assays:
estrogen receptor (ER) [1] = test: adeno-reporter assay in purified primary breast cancer cells (tumour, lymph node); format: cell-based, human; details: for Reporter response: E2 10 nM, OHT 100 nM, ICI 100 nM, 48 h
Protocol: The product was then filtered through a nylon mesh (Lockertex Ltd, Merseyside, UK) and the filtrate centrifuged at 2000 rpm, at room temperature (RT). The pellet was re-suspended in 9 mls of RPMI/1% FCS and a cell count performed to estimate the number of tumour cells in the preparation. […] A count of viable tumour cells was performed using trypan blue (Sigma, Poole, UK) prior to seeding in breast complete medium (DMEM/F-12 containing, 15 mM Hepes, 2 mM L-glutamine, 100U/ml penicillin, O. 1 mg/ml streptomycin, 50 U/ml polymixin B, 2.5 μg/ml amphotericin B, 5 μg/ml insulin, 10 μg/ml apo-transferrin, 100 μM ethanolamine, 1 μg/ml hydrocortisone, 10 ng/ml EGF) plus 5% FCS) for culture. The cells were used for experiments on day 3 after the initial plating.
(§1) For infections of primary cells, 6-10,000 cells/well were allowed and exposed to the given quantity of virus, after which they were pelleted and re-supended in 200 ul of PR free/5% DSS medium containing the appropriate ligands prior to plating into 96-well plates.
Cells were incubated for 48 hours following infections unless stated otherwise.
(§2) Reporter Gene Assay 48 hours after virus infection, 20 ul of 20% Triton in PBS was added to each well and incubated at RT for 10 minutes. […] (CRPG) made up in TBS at a concentration of 8 mg/ml was then added to the wells and the plate was incubated, foil-wrapped, at 37° C. until a colour change was observed. Plate readings were taken at a wavelength of 547 nm.
We have used the adeno-reporter to infect purified cells from breast cancer and lymph nodes of 19 patients. The reporter assay was performed in a blinded fashion since the IHC report of ER status was not available until after the experiments were complete. Viral infections were performed in suspension so as not to loose cancer cells since they were only loosely adherent. Following exposure to the virus for an hour, the cells were washed to remove excess virus and then plated and incubated in PR free/5% DSS supplemented with the given ligands for 48 hours.

estrogen receptor (ER) [2] = test: adenoERreporter assay in breast cancer cells from metastatic effusions (pleural, ascites); format: cell-based, human
Description: In the case of metastatic fluid, 100 mls of the fluid was sent for cytological examination and staining for ER and PR. The remaining fluid was centrifuged and the cell pellets were pooled. This was re-suspended in RPMI-1640/1% FCS and tumour cell numbers estimated as before. If the cells were in clusters, trypsin/EDTA (Sigma, Poole, UK) was used to obtain single cell suspensions before filtering to remove any debris. The remaining steps were as above. The purified cells were either infected immediately or cultured for a few days prior to infection.
as §1, §2
(§3) We purified breast cancer cells from metastatic fluid, both pleural and ascites as well as fine needle aspirates (FNA) from recurrent breast cancer. These cells were counted and infected with adenoERreporter and after 48 hours a β-gal assay was performed. We have infected 9 metastatic effusions including 2 cell lines of passage number two, derived from pleural effusions and 4 FNAs. Tables 3 and 4 show the treatment history and characteristics of the patients that provided the samples. Where possible, some of the fluid was sent for cytology and ER staining.

estrogen receptor (ER) [3] = test: adenoERreporter assay in fine needle aspirates (FNA) from recurrent breast cancer; format: cell-based, human
Protocol: Cells obtained from FNAs were collected in PBS (Sigma, Poole, UK) containing 2% FCS. If the aspirate was bloody, erythrocyte lysis buffer (0.155M NH4Cl, 10 mM KHCO3, 0.1 mM EDTA, pH 7.4) was used to lyse the red blood cells and after a further wash with PBS, the cells were re-suspended in culture media for counting and immediate infections.
as §1, §2
as §3, with “staining. However, this was not always feasible due to the variability of cancer cells in the metastatic fluid.” for “staining.”

estrogen receptor (ER) [4] = test: viral ER reporter in ER negative breast cancer cell lines; format: cell-based, human; details: virus 100:1
Protocol: FIG. 3: Reporter activity in variety of estrogen receptor alpha positive (MCF-7, T47-D, ZR75-1, BT474) and negative (Cal-51, SkBr3, and MDA-MB231 cell lines). For each figure, the order is as follows: (1) refers to the no ligand control.
For adenovirus infections, cell lines were plated in 96 wells at the given density in phenol red free DMEM supplemented with 5% double-stripped serum (PR/5% DSS). The following day cells were exposed to the given quantity of plaque forming units per cell (multiplicity of infection, MOI) in PR/SF medium. This was incubated at 37° C. for 1 hour after which the media was replaced by PR free/5% DSS containing the ligands.
as §2
We went on to test the virus reporter in a variety of ER positive and ER negative cell lines. Again 0.5×10^5 cells were infected with 100 virus per cell (100:1). Using the GFP virus it was evident that the infectability of the cell lines was variable. […]

[5] = system: malignant mammary epithelial cells; test: effects of estradiol and tamoxifen on survival of purified malignant mammary epithelial cells (Trypan blue counts); format: cell-based, human; details: for effect on cell death: ER positive purified breast cancer cells, E2 10 nM, OHT 100 nM
Protocol: (§4) 1×10^5 cells were plated into the wells of 96 well plates. […] Total and viable (Trypan blue) cell counts were measured during the time course of the experiment.
(§5) Normal cells were studied at several time points whereas due to limited number of cells, studies were limited to 2 time points in tumors. Trypan Blue staining determined viable cell numbers.

[6] = system: normal mammary epithelial cells; test: effects of estrogen and tamoxifen on purified normal mammary epithelial cells; format: cell-based, human; details: purified normal breast cells
Protocol: Cell viability was assessed using exclusion of Trypan blue staining. Proliferation of cells in culture was assessed by measuring tritiated thymidine (3HTdR) incorporation into DNA and using the MTS assay. For ^3HTdR-labelling, purified cells were seeded into the wells of 24-well dishes. The medium was subsequently changed for 0.5 ml of ^3HTdR-supplemented thymidine-free medium (RPMI, 2 mM L-glutamine, 100U/ml penicillin, 0.1 mg/ml streptomycin plus dialysed 2% FCS). The amount of incorporated ^3HTdR in the cultures was measured by scintillation counting following precipitation with trichloroacetic acid. MTS assays were carried out using the Cell Titre 96 (Promega, UK), according to manufacturer's protocols.
as §4, §5

ER positive tumours = details: cited from earlier work
[7] = Table 2 patient 5 Ln, ER+/PR−, Pre
[8] = Table 2 patient 8, ER+++/PR−, Post
[9] = Table 2 patient 12 Tu, Anaplastic small cell carcinoma, ER−/PR−
[10] = Table 2 patient 13, ER−/PR−, Post

Molecule | Reporter response (estrogen receptor (ER) [1]; [7]) | Reporter response (estrogen receptor (ER) [1]; [8]) | Reporter response (estrogen receptor (ER) [1]; Table 2 patient 12 Ln) | Reporter response (estrogen receptor (ER) [1]; [9]) | Reporter response (estrogen receptor (ER) [1]; [10]) | Reporter response (estrogen receptor (ER) [1]; Table 2 patient 15 Ln) | Reporter response (estrogen receptor (ER) [1]; Table 2 patient 15 Tu, ER−/PR−) | Reporter response (estrogen receptor (ER) [1]; Table 2 patient 16 Ln) | Reporter response (estrogen receptor (ER) [1]; Table 2 patient 16 Tu, Post) | Reporter response (estrogen receptor (ER) [1]; Table 2 patient 17) | Reporter response (estrogen receptor (ER) [1]; Table 2 patient 18, ER−/PR−) | effect on cell death [5] | further results
4-hydroxytamoxifen [4-OHT] | ns | ns | ns | ns | ns | ns | ns | ns | ns | ns | ns |  | effect on ER activity (estrogen receptor (ER) [2]; patient 4 (table 3), ascites, no previous treatment): inhibitory; Reporter Assay: inhibition (estrogen receptor (ER) [3]; FNA summary table, N = 1, IHC ER−/PR−, ?Responder): OHT/ICI inhibit by × 1.8
C[C@]12CC[C@@H]3c4ccc(O)cc4CC[C@H]3[C@@H]1CC[C@@H]2O [E2, 17β-estradiol] | ns | ns | ns | ns | ns | ns | ns | ns | ns | ns | ns | reduction in cell death | effect on ERE driven β-gal reporter / baseline activity (estrogen receptor (ER) [4]): no appreciable effect; stimulatory effect on the reporter above the background activity (estrogen receptor (ER) [2]; ER positive relapsed patients, compared with primary breast tumour): less of a stimulatory effect; Reporter Activity (estrogen receptor (ER) [2]; Table 3 patient 1) T2G2NxM0, PE, primary ER++/PR−, prior Tamoxifen 3y, Lentaron 5m): Ns; Reporter Activity (estrogen receptor (ER) [3]; Table 4 patient 1) T3G2N1M0, FNA ER−/PR−, no prior endocrine treatment): Ns; effect of estrogen on cells ([5]; ER negative breast cancer cells): no effect; expression of estrogen-regulated genes after estrogen exposure [6]: expressing both PR and PS2
CC/C(=C(\c1ccccc1)c1ccc(OCCN(C)C)cc1)c1ccccc1 [tamoxifen] |  |  |  |  |  |  |  |  |  |  |  | reversed | effect on reporter activity across patient samples (estrogen receptor (ER) [1]; purified cells from breast cancer and lymph nodes of 19 patients): inhibitory in most cases but did show some agonistic activity in a proportion of patients; increase in reporter activity in the presence of tamoxifen (estrogen receptor (ER) [2]; patient 1 (Table 3)): approximately 10 fold; response of cells to tamoxifen (estrogen receptor (ER) [2]; patient 3, table 3, previous tamoxifen for one year): continued to respond to tamoxifen; effect on reporter compared with E2 (estrogen receptor (ER) [2]; patient samples 1, 5 and 6 (Table 3) and patient 6 (Table 4), relapsed after tamoxifen): an effect at least equivalent to E2; cell numbers after tamoxifen treatment compared to estradiol treatment ([5]; 7 tumors studied, responders all ER positive, viable counts by Trypan Blue): Four out of the 7 tumors studied showed significant reduction in cell numbers; effect on proliferation [6]: decrease; patients with ERα-positive disease that do not respond (ER positive tumours; breast cancer patients, adjuvant/metastatic treatment): approximately 30%; patients with ER positive tumours that fail to respond (ER positive tumours; primary endocrine therapy (Gazet et al 1987)): ~50%
